We go through 18 molecules from patent US20250270191A1, “QUINOLONE BCL6 BIFUNCTIONAL DEGRADERS” (Treeline Biosciences, Inc., priority 2022, published 2025).

The structures appear in SMILES notation.

For this assay, the target named is T1, Human BCL6 protein (N-terminal HiBiT tagged BCL6 in HT1080 cells) (Homo sapiens, UniProt P41182+Q96SW2).
T1 construct: Human BCL6 protein coding open reading frame; expressed in transfected cells; host or cells: HT1080 (ATCC CCL-121), stably transduced with lentivirus pLV-UBC-N-HiBiT-BCL6-PGK-puro
The experiment in a line: HiBiT based BCL6 degradation assay. The format is cell-based. Particulars: HT1080 cells expressing N-terminal HiBiT tagged BCL6; 5 hours incubation; BCL6 degradation normalized with DMSO control. An outline of the steps: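 HT1080 cells stably expressing N-terminal HiBiT-BCL6 were treated with compound dilution series for 5 h at 37° C. in RPMI 1640 with 10% FBS. HiBiT lytic luminescence read after 15 min; degradation normalized to DMSO, with curves fitted by four-parameter logistic model.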
On the technique in general: With HiBiT, luminescence reflects the tagged protein that the partner subunit can reach.
In the case of `CNC(=O)COc1cc2cc(Nc3nc(N4CCN(CC5CCN(C(=O)c6cccc7c(C8CCC(=O)NC8=O)nn(C)c67)CC5)CC4)ncc3Cl)ccc2n(C)c1=O` (stereo not drawn) [Compound 323, 2-((6-((5-chloro-2-(4-((1-(3-(2,6-dioxopiperidin-3-yl)-1-methyl-1H-indazole-7-carbonyl)piperidin-4-yl)methyl)piperazin-1-yl)pyrimidin-4-yl)amino)-1-methyl-2-oxo-1,2-dihydroquinolin-3-yl)oxy)-N-methylacetamide], the “Ymin (5 hr)” value was “+++ (25% < Ymin ≤ 50%)”.

With `CNC(=O)COc1cc2cc(Nc3nc(N4CCC[C@@H]4CNc4cccc5c(C6CCC(=O)NC6=O)nn(C)c45)ncc3Cl)ccc2n(C)c1=O` (stereo partly drawn) [Compound 300a, 2-((6-((5-chloro-2-((2R)-2-(((3-(2,6-dioxopiperidin-3-yl)-1-methyl-1H-indazol-7-yl)amino)methyl)pyrrolidin-1-yl)pyrimidin-4-yl)amino)-1-methyl-2-oxo-1,2-dihydroquinolin-3-yl)oxy)-N-methylacetamide], the “Ymin (5 hr)” value is “++ (50% < Ymin ≤ 70%)”.

Take `CNC(=O)COc1cc2cc(Nc3nc(NCc4ccc(CNc5ccc6c(C7CCC(=O)NC7=O)nn(C)c6c5)cc4)ncc3Cl)ccc2n(C)c1=O` (stereo not drawn) [Compound 315, 2-((6-((5-chloro-2-((4-(((3-(2,6-dioxopiperidin-3-yl)-1-methyl-1H-indazol-6-yl)amino)methyl)benzyl)amino)pyrimidin-4-yl)amino)-1-methyl-2-oxo-1,2-dihydroquinolin-3-yl)oxy)-N-methylacetamide]: the “Ymin (5 hr)” value is “++ (50% < Ymin ≤ 70%)”.

Turning to `CNC(=O)COc1cc2cc(Nc3nc(N4CCN(C[C@@H]5CCN(c6ccc7c(C8CCC(=O)NC8=O)nn(C)c7c6)C5)CC4)ncc3Cl)ccc2n(C)c1=O` (stereo partly drawn) [Compound 306b, 2-((6-((5-chloro-2-(4-(((3S)-1-(3-(2,6-dioxopiperidin-3-yl)-1-methyl-1H-indazol-6-yl)pyrrolidin-3-yl)methyl)piperazin-1-yl)pyrimidin-4-yl)amino)-1-methyl-2-oxo-1,2-dihydroquinolin-3-yl)oxy)-N-methylacetamide], the “Ymin (5 hr)” value is listed as “++++ (Ymin ≤ 25%)”.

Turning to `CNC(=O)COc1cc2cc(Nc3nc(N4CCC(OC5CCN(c6cccc7c(C8CCC(=O)NC8=O)nn(C)c67)CC5)CC4)ncc3Cl)ccc2n(C)c1=O` (stereo not drawn) [Compound 316, 2-((6-((5-chloro-2-(4-((1-(3-(2,6-dioxopiperidin-3-yl)-1-methyl-1H-indazol-7-yl)piperidin-4-yl)oxy)piperidin-1-yl)pyrimidin-4-yl)amino)-1-methyl-2-oxo-1,2-dihydroquinolin-3-yl)oxy)-N-methylacetamide], the “Ymin (5 hr)” value was “++++ (Ymin ≤ 25%)”.

Consider `CNC(=O)COc1cc2cc(Nc3nc(N4CC[C@H](COc5ccc6c(C7CCC(=O)NC7=O)nn(C)c6c5)C4)ncc3Cl)ccc2n(C)c1=O` (stereo partly drawn) [Compound 313a, 2-((6-((5-chloro-2-((3S)-3-(((3-(2,6-dioxopiperidin-3-yl)-1-methyl-1H-indazol-6-yl)oxy)methyl)pyrrolidin-1-yl)pyrimidin-4-yl)amino)-1-methyl-2-oxo-1,2-dihydroquinolin-3-yl)oxy)-N-methylacetamide], for which the “Ymin (5 hr)” value was “++ (50% < Ymin ≤ 70%)”.

Turning to `CNC(=O)COc1cc2cc(Nc3nc(NC[C@H]4CC[C@@H](Nc5cccc6c(C7CCC(=O)NC7=O)nn(C)c56)CC4)ncc3Cl)ccc2n(C)c1=O` (stereo partly drawn) [Compound 304a, 2-((6-((5-chloro-2-((((1s,4s)-4-((3-(2,6-dioxopiperidin-3-yl)-1-methyl-1H-indazol-7-yl)amino)cyclohexyl)methyl)amino)pyrimidin-4-yl)amino)-1-methyl-2-oxo-1,2-dihydroquinolin-3-yl)oxy)-N-methylacetamide], the “Ymin (5 hr)” value is given as “++ (50% < Ymin ≤ 70%)”.

Turning to `CNC(=O)COc1cc2cc(Nc3nc(N4CCCC5(CCN(c6ccc7c(C8CCC(=O)NC8=O)nn(C)c7c6)C5)C4)ncc3Cl)ccc2n(C)c1=O` (stereo not drawn) [Compound 331, 2-((6-((5-chloro-2-(2-(3-(2,6-dioxopiperidin-3-yl)-1-methyl-1H-indazol-6-yl)-2,7-diazaspiro[4.5]decan-7-yl)pyrimidin-4-yl)amino)-1-methyl-2-oxo-1,2-dihydroquinolin-3-yl)oxy)-N-methylacetamide], the “Ymin (5 hr)” value is reported as “+++ (25% < Ymin ≤ 50%)”.

In the case of `CNC(=O)COc1cc2cc(Nc3nc(N4CCC(C5CN(c6cccc7c(C8CCC(=O)NC8=O)nn(C)c67)C5)CC4)ncc3Cl)ccc2n(C)c1=O` (stereo not drawn) [Compound 286, 2-((6-((5-chloro-2-(4-(1-(3-(2,6-dioxopiperidin-3-yl)-1-methyl-1H-indazol-7-yl)azetidin-3-yl)piperidin-1-yl)pyrimidin-4-yl)amino)-1-methyl-2-oxo-1,2-dihydroquinolin-3-yl)oxy)-N-methylacetamide], the “Ymin (5 hr)” value was “+++ (25% < Ymin ≤ 50%)”.

Take `CNC(=O)COc1cc2cc(Nc3nc(N4CCC(C5CN(c6ccc7c(C8CCC(=O)NC8=O)nn(C)c7c6)C5)CC4)ncc3Cl)ccc2n(C)c1=O` (stereo not drawn) [Compound 292, 2-((6-((5-chloro-2-(4-(1-(3-(2,6-dioxopiperidin-3-yl)-1-methyl-1H-indazol-6-yl)azetidin-3-yl)piperidin-1-yl)pyrimidin-4-yl)amino)-1-methyl-2-oxo-1,2-dihydroquinolin-3-yl)oxy)-N-methylacetamide]: the “Ymin (5 hr)” value is on record as “+++ (25% < Ymin ≤ 50%)”.

As for `CNC(=O)COc1cc2cc(Nc3nc(NC[C@H]4CCCN(c5cccc6c(C7CCC(=O)NC7=O)nn(C)c56)C4)ncc3Cl)ccc2n(C)c1=O` (stereo partly drawn) [Compound 303b, 2-((6-((5-chloro-2-((((3R)-1-(3-(2,6-dioxopiperidin-3-yl)-1-methyl-1H-indazol-7-yl)piperidin-3-yl)methyl)amino)pyrimidin-4-yl)amino)-1-methyl-2-oxo-1,2-dihydroquinolin-3-yl)oxy)-N-methylacetamide], the “Ymin (5 hr)” value is “++ (50% < Ymin ≤ 70%)”.

On to `CNC(=O)COc1cc2cc(Nc3cc(N4CCN(CC5CCN(c6cccc7c(C8CCC(=O)NC8=O)nn(C)c67)CC5)CC4)ncc3Cl)ccc2n(C)c1=O` (stereo not drawn) [Compound 346, 2-((6-((5-chloro-2-(4-((1-(3-(2,6-dioxopiperidin-3-yl)-1-methyl-1H-indazol-7-yl)piperidin-4-yl)methyl)piperazin-1-yl)pyridin-4-yl)amino)-1-methyl-2-oxo-1,2-dihydroquinolin-3-yl)oxy)-N-methylacetamide], for which the “Ymin (5 hr)” value is listed as “++++ (Ymin ≤ 25%)”.

For the molecule `CNC(=O)COc1cc2cc(Nc3nc(N4CCC[C@H]4CNc4cccc(C5CCC(=O)NC5=O)c4)ncc3Cl)ccc2n(C)c1=O` (stereo partly drawn) [Compound 260b, 2-((6-((5-chloro-2-((2S)-2-(((3-(2,6-dioxopiperidin-3-yl)phenyl)amino)methyl)pyrrolidin-1-yl)pyrimidin-4-yl)amino)-1-methyl-2-oxo-1,2-dihydroquinolin-3-yl)oxy)-N-methylacetamide], the “Ymin (5 hr)” value is given as “+ (Ymin > 70%)”.

For `CNC(=O)COc1cc2cc(Nc3nc(N4CC5CCC(Nc6cccc7c(C8CCC(=O)NC8=O)nn(C)c67)CC5C4)ncc3Cl)ccc2n(C)c1=O` (stereo not drawn) [Compound 339, 2-((6-((5-chloro-2-(5-((3-(2,6-dioxopiperidin-3-yl)-1-methyl-1H-indazol-7-yl)amino)octahydro-2H-isoindol-2-yl)pyrimidin-4-yl)amino)-1-methyl-2-oxo-1,2-dihydroquinolin-3-yl)oxy)-N-methylacetamide], the “Ymin (5 hr)” value was “++ (50% < Ymin ≤ 70%)”.

In the case of `CNC(=O)COc1cc2cc(Nc3nc(N4CCC[C@H](CN(C)c5ccc6c(C7CCC(=O)NC7=O)nn(C)c6c5)C4)ncc3Cl)ccc2n(C)c1=O` (stereo partly drawn) [Compound 312a, 2-((6-((5-chloro-2-((3R)-3-(((3-(2,6-dioxopiperidin-3-yl)-1-methyl-1H-indazol-6-yl)(methyl)amino)methyl)piperidin-1-yl)pyrimidin-4-yl)amino)-1-methyl-2-oxo-1,2-dihydroquinolin-3-yl)oxy)-N-methylacetamide], the “Ymin (5 hr)” value is “++ (50% < Ymin ≤ 70%)”.

Take `CNC(=O)COc1cc2cc(Nc3nc(N4CCC(CC5CCN(c6cccc7c(C8CCC(=O)NC8=O)nn(C)c67)C5)CC4)ncc3Cl)ccc2n(C)c1=O` (stereo not drawn) [Compound 320, 2-((6-((5-chloro-2-(4-((1-(3-(2,6-dioxopiperidin-3-yl)-1-methyl-1H-indazol-7-yl)pyrrolidin-3-yl)methyl)piperidin-1-yl)pyrimidin-4-yl)amino)-1-methyl-2-oxo-1,2-dihydroquinolin-3-yl)oxy)-N-methylacetamide]: the “Ymin (5 hr)” value was “+++ (25% < Ymin ≤ 50%)”.

Consider `CNC(=O)COc1cc2cc(Nc3nc(N4CC5(CCC(Nc6ccc7c(C8CCC(=O)NC8=O)nn(C)c7c6)CC5)C4)ncc3Cl)ccc2n(C)c1=O` (stereo not drawn) [Compound 341, 2-((6-((5-chloro-2-(7-((3-(2,6-dioxopiperidin-3-yl)-1-methyl-1H-indazol-6-yl)amino)-2-azaspiro[3.5]nonan-2-yl)pyrimidin-4-yl)amino)-1-methyl-2-oxo-1,2-dihydroquinolin-3-yl)oxy)-N-methylacetamide], for which the “Ymin (5 hr)” value is “++++ (Ymin ≤ 25%)”.

`CNC(=O)COc1cc2cc(Nc3nc(N4CCC[C@H](CNc5ccc6c(C7CCC(=O)NC7=O)nn(C)c6c5)C4)ncc3Cl)ccc2n(C)c1=O` (stereo partly drawn) [Compound 261b, 2-((6-((5-chloro-2-((3R)-3-(((3-(2,6-dioxopiperidin-3-yl)-1-methyl-1H-indazol-6-yl)amino)methyl)piperidin-1-yl)pyrimidin-4-yl)amino)-1-methyl-2-oxo-1,2-dihydroquinolin-3-yl)oxy)-N-methylacetamide]: the “Ymin (5 hr)” value is recorded as “+++ (25% < Ymin ≤ 50%)”.
